In one assay the test system is ADA-M R5 HIV. As to the kind of experiment: Treatment of PBMCs infected with ADA-M R5 HIV strain. The class given is cell-based. How it is done: For that purpose, peripheral blood mononuclear cells (PBMCs) of five healthy donors have been isolated by centrifugation on a FICOLL gradient. The cells have then been cultivated at 37° C., 5% CO2 to a density of 1×10^6 cells/mL in RPMI Glutamax medium (Life Technologies Ref 61870-010) supplemented with 10% fetal calf serum (FCS) (Thermo Fischer Ref SV30160.03) 1000 U/mL of IL2 (Peprotech Ref 200-02) and […] of PHA (Roche ref 1249738). Three days later, cells have been pooled and resuspended to a density of 1×10^6 cells/mL in RPMI Glutamax medium supplemented with 10% fetal calf serum (FCS) 1000 U/mL of IL-2 and distributed in 12 wells plates (Falcon Ref 353043) with 1.2 mL/well (4 wells per condition).
HIV-1 infection has been performed with 1 ng of Ada-M R5 HIV strain/well. Cells were treated for 6 days with 1.2 mL/well of 60 μM solution of 8-chloro-N-[4-(trifluoromethoxy)phenyl]quinolin-2-amine or with 0.12% DMSO (Sigma Ref D4818 as negative control).

Assay [1] relates to HIV-1 and HIV-2 T cell-tropic laboratory strains as well as clinical isolates of different subtypes. The following applies: HIV-1 and HIV-2 laboratory strains and clinical isolates; cited from earlier work.

With `FC(F)(F)Oc1ccc(Nc2ccc3cccc(Cl)c3n2)cc1` [8-chloro-N-[4-(trifluoromethoxy)phenyl]quinolin-2-amine], the “effect on viruses in infected PBMCs” value in the assay on ADA-M R5 HIV is reported as “removal of the viruses”. Also, the “inhibition of replication in PBMC, active concentrations” value in assay [1] is recorded as “nM concentrations range”.

The values are drawn from patent US11441181B2, “miRNA-124 as a biomarker” (priority 2013, dated 2022).
